Counter-ions that a name gives are not always drawn.
Target: T1, human recombinant ENPP1 (Homo sapiens, UniProt P22413)
T1 construct: purchased R&D systems
T1 sequence (P22413 1-925): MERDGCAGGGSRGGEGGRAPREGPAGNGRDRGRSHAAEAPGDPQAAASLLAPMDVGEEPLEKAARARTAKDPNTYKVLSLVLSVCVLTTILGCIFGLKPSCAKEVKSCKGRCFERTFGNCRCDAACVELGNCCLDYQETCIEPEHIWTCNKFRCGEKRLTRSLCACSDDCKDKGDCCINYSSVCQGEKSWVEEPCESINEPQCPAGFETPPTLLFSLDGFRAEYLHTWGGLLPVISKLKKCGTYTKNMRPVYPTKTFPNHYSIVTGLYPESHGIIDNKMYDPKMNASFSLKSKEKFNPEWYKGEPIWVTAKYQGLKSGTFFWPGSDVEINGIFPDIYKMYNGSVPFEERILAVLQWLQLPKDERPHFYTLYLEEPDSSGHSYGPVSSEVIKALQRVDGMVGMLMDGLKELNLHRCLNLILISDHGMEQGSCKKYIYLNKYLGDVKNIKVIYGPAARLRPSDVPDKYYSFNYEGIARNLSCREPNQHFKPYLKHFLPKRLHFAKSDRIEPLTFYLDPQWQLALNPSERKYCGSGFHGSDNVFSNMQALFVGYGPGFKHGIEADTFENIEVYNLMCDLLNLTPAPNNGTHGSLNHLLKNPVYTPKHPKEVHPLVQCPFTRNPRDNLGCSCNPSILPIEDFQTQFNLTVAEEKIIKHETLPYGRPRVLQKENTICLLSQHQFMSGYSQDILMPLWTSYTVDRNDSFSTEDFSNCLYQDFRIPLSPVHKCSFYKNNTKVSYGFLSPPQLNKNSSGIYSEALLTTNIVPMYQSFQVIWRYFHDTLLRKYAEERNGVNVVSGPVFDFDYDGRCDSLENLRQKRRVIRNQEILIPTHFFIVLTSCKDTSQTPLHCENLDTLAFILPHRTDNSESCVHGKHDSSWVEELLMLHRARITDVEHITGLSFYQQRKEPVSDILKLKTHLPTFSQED
Test: in vitro recombinant human ENPP1 enzymatic assay (AMP-Glo, cGAMP substrate)
Type: biochemical
Details: for % inhibition: ENPP1, test concentration not given; for IC50: average ± SD from two or three independent repeats
Excerpt: ENPP1 hydrolyses nucleotides or nucleotide derivatives and produces nucleoside-5′-monophosphates and pyrophosphates. ENPP1 also hydrolyses 2′3′-cGAMP and produces 5′-adenosine monophosphate (AMP) and 5′ guanosine monophosphate (GMP). The produced AMP from the reaction is detected using the AMP-Glo® kit (Promega). The assay kit consists of two reagents; one to terminate the AMP-generating enzymatic reaction, remove ATP and convert AMP produced into ADP, and a second reagent to convert ADP to ATP, which is used to generate a luminescence in a luciferase reaction. The amount of light measured is proportional to the amount of AMP produced by ENPP1.
The final assay reaction mixture contains a buffer of 50 mM Tris (pH 8.5), 250 mM NaCl, 0.5 mM CaCl2, 1 μM ZnCl2, 5% glycerol and 1% DMSO. Serially diluted ENPP1 inhibitors (usually range from 10 μM to 0.5 nM) are pre-incubated with human recombinant ENPP1 enzyme (R&D systems) at 3 ng/reaction for 5–10 min at room temperature (RT). The reaction is initiated by adding cGAMP (at final concentration of 5 μM) and incubating for 90 min at 37 °C. At the end of incubation, the reaction is stopped by adding 10 μL of AMP-Glo reagent I and followed by incubation at RT for one hour. After incubation, 20 μL of AMP detection solution (mixture of AMP-Glo II reagent and Kinase-Glo one at 1:100 ratio) is added and incubated at RT for one hour. The luminescence signal generated is measured using the ClarioStar plate reader (BMG Labtech). Maximal activity control (containing enzyme and substrate in presence of 1% DMSO only; MAX) and background control (containing substrate and 1% DMSO; MIN) are evaluated simultaneously. In each experiment, serially diluted reference ENPP1 inhibitor is tested together. The IC50 values for % remaining activity versus compound concentration are determined by fitting the inhibition curves using a three-parameter variable method in GraphPad Prism® software. Triplicate wells are run at each inhibitor concentration and averaged IC50 value for each compound is calculated.

## Cn1ccc2c(N3CCC(CNS(N)(=O)=O)CC3)ncnc21 [18d, N-((1–(7-Methyl-7H-pyrrolo[2,3-d]pyrimidin-4-yl)piperidin-4-yl)methyl)methanesulfamide hydrochloride]
Table 1
  % inhibition: 100%
  IC50: 51.4 ± 0.002 nM

## CC(C)(NS(N)(=O)=O)c1ccc(-c2ncnc3[nH]ccc23)cc1 [25h, N-(2–(4-(7H-Pyrrolo[2,3-d]pyrimidin-4-yl)phenyl)propan-2-yl)methanesulfamide hydrochloride]
Table 2
  % inhibition: 98%
  IC50: 1466 ± 0.044 nM

## NS(=O)(=O)NCC1CCN(c2ncnc3c2ccn3-c2ccoc2)CC1 [18k, N-((1–(7-(Furan-3-yl)-7H-pyrrolo[2,3-d]pyrimidin-4-yl)piperidin-4-yl)methyl)methanesulfamide hydrochloride]
Table 1
  % inhibition: 100%
  IC50: 54.1 ± 0.001 nM

## Cc1cc2c(N3CCC(CNS(N)(=O)=O)CC3)ncnc2[nH]1 [18n, N-((1–(6-Methyl-7H-pyrrolo[2,3-d]pyrimidin-4-yl)piperidin-4-yl)methyl)methanesulfamide hydrochloride]
Table 1
  % inhibition: 99%
  IC50: 218 ± 0.019 nM

## COc1ccc(-n2ccc3c(N4CCC(CNS(N)(=O)=O)CC4)ncnc32)cc1 [18i, N-((1–(7-(4-Methoxyphenyl)-7H-pyrrolo[2,3-d]pyrimidin-4-yl)piperidin-4-yl)methyl)methanesulfamide hydrochloride]
Table 1
  % inhibition: 37%

## CC(NS(N)(=O)=O)c1ccc(-c2ncnc3[nH]ccc23)cc1 (stereo not drawn) [25j, N-(1–(4-(7H-Pyrrolo[2,3-d]pyrimidin-4-yl)phenyl)ethyl)methanesulfamide hydrochloride]
Table 2
  % inhibition: 100%

## Cc1c[nH]c2ncnc(N3CCC(CNS(N)(=O)=O)CC3)c12 [18m, N-((1–(5-Methyl-7H-pyrrolo[2,3-d]pyrimidin-4-yl)piperidin-4-yl)methyl)methanesulfamide hydrochloride]
Table 1
  % inhibition: 94%
  IC50: 462 ± 0.17 nM

## NS(=O)(=O)NCC1CCN(c2ncnc3c2ccn3-c2ccccc2)CC1 [18g, N-((1–(7-Phenyl-7H-pyrrolo[2,3-d]pyrimidin-4-yl)piperidin-4-yl)methyl)methanesulfamide hydrochloride hydrochloride]
Table 1
  % inhibition: 99%
  IC50: 298 ± 0.041 nM

## Cl.O=S(=O)(NCC1CCN(c2ncnc3[nH]ccc23)CC1)c1cccs1 [20a, N-((1-(7H-Pyrrolo[2,3-d]pyrimidin-4-yl)piperidin-4-yl)methyl)thiophene-2-sulfonamide hydrochloride]
Table 1
  % inhibition: 37%

## NS(=O)(=O)NC1CCN(c2ncnc3[nH]ccc23)CC1 [18q, N-(1-(7H-Pyrrolo[2,3-d]pyrimidin-4-yl)piperidin-4-yl)methanesulfamide hydrochloride]
Table 1
  % inhibition: 71%
  IC50: 3323 ± 0.298 nM

## Cl.O=S(=O)(NCC1CCN(c2ncnc3[nH]ccc23)CC1)C1CC1 [20c, N-((1-(7H-Pyrrolo[2,3-d]pyrimidin-4-yl)piperidin-4-yl)methyl)cyclopropanesulfonamide hydrochloride]
Table 1
  % inhibition: 22%

## NS(=O)(=O)Nc1ccc(-c2ccnc3[nH]ccc23)cc1 [25b, N-(4-(1H-Pyrrolo[2,3-b]pyridin-4-yl)phenyl)methanesulfamide hydrochloride]
Table 2
  % inhibition: 33%

## NS(=O)(=O)NCc1ccc(-c2ncnc3[nH]ccc23)cc1F [25c, N-(2-Fluoro-4-(7H-pyrrolo[2,3-d]pyrimidin-4-yl)benzyl)methanesulfamide hydrochloride]
Table 2
  % inhibition: 73%

## Cn1ccc2c(-c3ccc(CNS(N)(=O)=O)cc3)ncnc21 [25e, N-(4-(7-Methyl-7H-pyrrolo[2,3-d]pyrimidin-4-yl)benzyl)methanesulfamide hydrochloride]
Table 2
  % inhibition: 72%

## CSc1nc(N2CCC(CCNS(N)(=O)=O)CC2)c2cc[nH]c2n1 [18b]
Table 1
  % inhibition: 34%
  IC50: 21610 ± 2.16 nM

## NS(=O)(=O)Nc1ccc(-c2ncnc3[nH]ccc23)cc1 [25a]
Table 2
  % inhibition: 0%

## NS(=O)(=O)NCC1CCN(c2ncnc3c2ccn3-c2ccc(F)cc2)CC1 [18h, N-((1–(7-(4-Fluorophenyl)-7H-pyrrolo[2,3-d]pyrimidin-4-yl)piperidin-4-yl)methyl)methanesulfamide hydrochloride]
Table 1
  % inhibition: 54%

## NS(=O)(=O)NCCC1CCN(c2ncnc3[nH]ccc23)CC1 [18a, N-(2–(1-(7H-Pyrrolo[2,3-d]pyrimidin-4-yl)piperidin-4-yl)ethyl)methanesulfamide hydrochloride]
Table 1
  % inhibition: 99%

## NS(=O)(=O)NCC1CCN(c2ncnc3[nH]ccc23)CC1 [18c, N-((1–(7H-Pyrrolo[2,3-d]pyrimidin-4-yl)piperidin-4-yl)methyl)methanesulfamide hydrochloride]
Table 1
  % inhibition: 100%
  IC50: 19 ± 0.016 nM

## NS(=O)(=O)NCc1ccc(-c2ncnc3[nH]ccc23)cc1 [25d, N-(4-(7H-Pyrrolo[2,3-d]pyrimidin-4-yl)benzyl)methanesulfamide hydrochloride]
Table 2
  % inhibition: 76%
  IC50: 7597 ± 1.27 nM

## NS(=O)(=O)NCC1CCN(c2ncnc3c2ccn3-c2cccnc2)CC1 [18l, N-((1-(7-(Pyridin-3-yl)-7H-pyrrolo[2,3-d]pyrimidin-4-yl)piperidin-4-yl)methyl)methanesulfamide hydrochloride]
Table 1
  % inhibition: 71%
  IC50: 1853 ± 1.16 nM

## Cc1ccc(S(=O)(=O)NCC2CCN(c3ncnc4[nH]ccc34)CC2)cc1.Cl [20b, N-((1-(7H-Pyrrolo[2,3-d]pyrimidin-4-yl)piperidin-4-yl)methyl)-4-methylbenzenesulfonamide hydrochloride]
Table 1
  % inhibition: 62%

## CC(C)n1ccc2c(N3CCC(CNS(N)(=O)=O)CC3)ncnc21 [18e, N-((1–(7-Isopropyl-7H-pyrrolo[2,3-d]pyrimidin-4-yl)piperidin-4-yl)methyl)methanesulfamide hydrochloride]
Table 1
  % inhibition: 75%
  IC50: 20660 ± 5.02 nM

## CC(NS(N)(=O)=O)C1CCN(c2ncnc3[nH]ccc23)CC1 (stereo not drawn) [18o, N-(1–(1-(7H-Pyrrolo[2,3-d]pyrimidin-4-yl)piperidin-4-yl)ethyl)methanesulfamide hydrochloride]
Table 1
  % inhibition: 99%
  IC50: 250 ± 0.028 nM

## NS(=O)(=O)NCC1CCN(c2ncnc3c2ccn3C2CC2)CC1 [18f, N-((1–(7-Cyclopropyl-7H-pyrrolo[2,3-d]pyrimidin-4-yl)piperidin-4-yl)methyl)methanesulfamide hydrochloride hydrochloride]
Table 1
  % inhibition: 100%
  IC50: 74 ± 0.052 nM

## NS(=O)(=O)NCC1CCN(c2ncnc3c2ccn3Cc2ccccc2)CC1 [18j, N-((1–(7-Benzyl-7H-pyrrolo[2,3-d]pyrimidin-4-yl)piperidin-4-yl)methyl)methanesulfamide hydrochloride]
Table 1
  % inhibition: 17%

## NS(=O)(=O)NCc1cccc(-c2ncnc3[nH]ccc23)c1 [25g, N-(3-(7H-Pyrrolo[2,3-d]pyrimidin-4-yl)benzyl)methanesulfamide hydrochloride]
Table 2
  % inhibition: 53%
  IC50: 4769 ± 0.455 nM

Reference: article PMC9467556, “Identification of novel pyrrolopyrimidine and pyrrolopyridine derivatives as potent ENPP1 inhibitors” (Journal of Enzyme Inhibition and Medicinal Chemistry, 2022)
